Experiments:
Experiment in all cases: drug sensitivity score (DSS2, normalised partial AUC of dose-response, 72 h CellTiter-Glo viability) (DSS (dimensionless)); higher = more sensitive (stronger growth inhibition / cytotoxicity); extreme values may be limits of the assay
[1] = test system: PF179T
How it was run: (§1)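 Low-passage primary prostate cancer-associated fibroblasts, PF179T, WPMY-1, LNCaP and 22Rv1 cells were seeded into 384-well plates carrying pre-dispensed compounds at five doses covering a 10,000-fold range. After 72 h, viability was read by CellTiter-Glo 2.0 luminescence. Responses were scaled to vehicle and positive-control wells. The drug sensitivity score (DSS2) is a partial area under the fitted logistic dose–response curve divided by the log of its upper asymptote, computed in BREEZE; higher means more sensitive.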

[2] = test system: CAF#2 (primary prostate cancer-associated fibroblasts of iCAF-like type)
How it was run: as §1

[3] = test system: CAF#7 (primary prostate cancer-associated fibroblasts of myCAF-like type)
How it was run: as §1

[4] = test system: LNCAP
How it was run: as §1

[5] = test system: CAF#6 (primary prostate cancer-associated fibroblasts of iCAF-like type)
How it was run: as §1

[6] = test system: CAF#3 (primary prostate cancer-associated fibroblasts of myCAF-like type)
How it was run: as §1

[7] = test system: CAF#4 (primary prostate cancer-associated fibroblasts of iCAF-like type)
How it was run: as §1

[8] = test system: WPMY-1
How it was run: as §1

[9] = test system: 22Rv1
How it was run: as §1

[10] = test system: CAF#5 (primary prostate cancer-associated fibroblasts of myCAF-like type)
How it was run: as §1

[11] = test system: CAF#1 (primary prostate cancer-associated fibroblasts of myCAF-like type)
How it was run: as §1

SMILES | drug sensitivity score [1] | drug sensitivity score [2] | drug sensitivity score [3] | drug sensitivity score [4] | drug sensitivity score [5] | drug sensitivity score [6] | drug sensitivity score [7] | drug sensitivity score [8] | drug sensitivity score [9] | drug sensitivity score [10] | drug sensitivity score [11]
Cc1cc(Nc2cc(N3CCN(C)CC3)nc(Sc3ccc(NC(=O)C4CC4)cc3)n2)n[nH]1 [Tozasertib] (tested concentration range 1-10000 nM) | 8.2 | 8.4 | 4.7 | 7 | 3 | 4.9 | 3.2 | 14.5 | 5.5 | 3.5 | 3.2
CC(=O)Nc1cccc(-n2c(=O)n(C3CC3)c(=O)c3c(Nc4ccc(I)cc4F)n(C)c(=O)c(C)c32)c1 [Trametinib] (tested concentration range 0-250 nM) | 1.8 | 5.5 | 4.2 | 0 | 1.7 | 0 | 1.3 | 5.5 | 11.8 | 2.7 | 3
CC1=C(/C=C/C(C)=C/C=C/C(C)=C/C(=O)O)C(C)(C)CCC1 [Tretinoin] (tested concentration range 1-10000 nM) | 8.2 | 5 | 5 | 0 | 2.7 | 0.2 | 0 | 0 | 0 | 1.7 | 1.4
NC(=S)N/N=C/c1ncccc1N [Triapine] (tested concentration range 1-10000 nM) | 2.2 | 3.3 | 0.8 | 3.2 | 1 | 0.6 | 0 | 4.9 | 4 | 1.3 | 0
O=c1[nH]c(=O)n([C@H]2C[C@H](O)[C@@H](CO)O2)cc1C(F)(F)F [Trifluridine] (tested concentration range 1-10000 nM) | 0.1 | 1 | 0 | 4 | 0 | 0 | 0 | 4.7 | 5 | 0 | 0
O=C(CCCCCCC(=O)Nc1ccc([C@H]2O[C@@H](CSc3nc(-c4ccccc4)c(-c4ccccc4)o3)C[C@@H](c3ccc(CO)cc3)O2)cc1)NO [Tubacin] (tested concentration range 1-10000 nM) | 3.4 | 2.4 | 3.3 | 7 | 1.1 | 0 | 1.4 | 5.3 | 5.6 | 2.3 | 2
CN1CCc2c(c3ccccc3n2Cc2ccc(C(=O)NO)cc2)C1 [Tubastatin A] (tested concentration range 1-10000 nM) | 0 | 0.2 | 0 | 1.4 | 0 | 0.6 | 2.8 | 5.9 | 2.3 | 0 | 0
Cc1cc(Nc2ncnc3ccc(NC4=NC(C)(C)CO4)cc23)ccc1Oc1ccn2ncnc2c1 [Tucatinib] (tested concentration range 0.2-2500 nM) | 0.1 | 0 | 0 | 0.6 | 0.1 | 0 | 0 | 0 | 0 | 0 | 0.4
Nc1cc(F)ccc1NC(=O)c1ccc(CNC(=O)/C=C/c2cccnc2)cc1 [Tucidinostat] (tested concentration range 1-10000 nM) | 8.9 | 6 | 3.9 | 10.6 | 3.2 | 2.9 | 5.7 | 7.6 | 9.6 | 10.1 | 2.4
COC(=O)c1ccc2c(c1)[nH]c1ncnc(NCCCN3CCCCC3)c12 [UM729] (tested concentration range 1-10000 nM) | 0.1 | 0 | 0.2 | 3.3 | 0 | 0.3 | 0 | 3.9 | 3.6 | 1.6 | 0
COc1cc2c(NC3CCN(C(C)C)CC3)nc(C3CCCCC3)nc2cc1OCCCN1CCCC1 [UNC0638] (tested concentration range 1-10000 nM) | 5.2 | 0 | 6.6 | 6 | 6.5 | 7.7 | 0 | 6.1 | 7.2 | 0 | 0
COc1cc2c(NC3CCN(C(C)C)CC3)nc(N3CCC(F)(F)CC3)nc2cc1OCCCN1CCCC1 [UNC0642] (tested concentration range 1-10000 nM) | 0 | 0 | 1.9 | 4.5 | 0.7 | 0 | 0 | 4.8 | 5.8 | 0 | 0
O=C(c1ccc(C(=O)N2CCC(N3CCCC3)CC2)c(Nc2ccccc2)c1)N1CCC(N2CCCC2)CC1 [UNC1215] (tested concentration range 1-10000 nM) | 0 | 0 | 0 | 0 | 0 | 0 | 0 | 0 | 0 | 0 | 0
CCCCNc1ncc(C(=O)NCc2ccc(-n3ccnc3)cc2)c(NC2CCC(O)CC2)n1 (stereo not given) [UNC2881] (tested concentration range 0.2-2500 nM) | 0 | 0.1 | 4.8 | 1.5 | 2 | 2.6 | 0.7 | 0 | 0 | 0.1 | 0.7
CC(C)Nc1cc(-c2c[nH]c(C(=O)N[C@H](CO)c3cccc(Cl)c3)c2)c(Cl)cn1 [Ulixertinib] (tested concentration range 1-10000 nM) | 1.9 | 2.2 | 4.3 | 6.1 | 2 | 0 | 1.2 | 5.7 | 9.6 | 0.3 | 0.2
CC(C)Oc1ccc(-c2nn([C@@H](C)c3oc4ccc(F)cc4c(=O)c3-c3cccc(F)c3)c3ncnc(N)c23)cc1F [Umbralisib] (tested concentration range 0.2-2500 nM) | 0 | 0.9 | 0 | 3.4 | 0 | 2.4 | 0 | 0 | 0 | 0 | 1.1
CC[C@@H]1CN(C(=O)NCC(F)(F)F)C[C@@H]1c1cnc2cnc3[nH]ccc3n12 [Upadacitinib] (tested concentration range 1-10000 nM) | 0 | 1.3 | 0 | 0 | 0 | 0 | 0.1 | 0.5 | 0 | 0.8 | 0
C=CC(=O)N1CC/C(=C\c2ccc(F)c([N+](=O)[O-])c2)C(=O)/C(=C/c2ccc(F)c([N+](=O)[O-])c2)C1 [VLX1570] (tested concentration range 1-10000 nM) | 22.2 | 29.7 | 19.5 | 21.4 | 17.5 | 17.3 | 28 | 29.3 | 26.9 | 25.1 | 26.9
CNC(=O)c1ccccc1Nc1cc(Nc2ccc(N3CCOCC3)cc2OC)ncc1C(F)(F)F [VS-4718] (tested concentration range 1-10000 nM) | 7.5 | 11.9 | 12.4 | 4.5 | 8.9 | 8.1 | 7.3 | 6.8 | 7.9 | 13.1 | 12.9
CCCC(CCC)C(=O)O [Valproic acid] (tested concentration range 100-1000000 nM) | 0 | 0 | 0 | 0 | 0 | 1.2 | 0 | 0 | 0 | 0 | 0
CCCCC(=O)OCC(=O)[C@]1(O)Cc2c(O)c3c(c(O)c2[C@@H](O[C@H]2C[C@H](NC(=O)C(F)(F)F)[C@H](O)[C@H](C)O2)C1)C(=O)c1c(OC)cccc1C3=O [Valrubicin] (tested concentration range 0.5-5000 nM) | 9.6 | 9.3 | 11.4 | 20.6 | 9.4 | 8.7 | 4.9 | 14.9 | 14.3 | 8.4 | 8.6
COc1cc2/c(=N/c3ccc(Br)cc3F)nc[nH]c2cc1OCC1CCN(C)CC1 [Vandetanib] (tested concentration range 0.1-1000 nM) | 0 | 6.4 | 0.2 | 0 | 0.1 | 2.4 | 4.6 | 0.4 | 0 | 4.4 | 5.1
CCc1c(C(=O)C(N)=O)c2c(OCC(=O)O)cccc2n1Cc1ccccc1 [Varespladib] (tested concentration range 1-10000 nM) | 0 | 0 | 0 | 0 | 0 | 0 | 0 | 0 | 0 | 1.3 | 0
C[C@]1(c2nc3c(C(N)=O)cccc3[nH]2)CCCN1 [Veliparib] (tested concentration range 1-10000 nM) | 0.5 | 1.5 | 1.2 | 0.7 | 1.7 | 2.6 | 0 | 0.8 | 1.4 | 0 | 1.2
CCCS(=O)(=O)Nc1ccc(F)c(C(=O)c2c[nH]c3ncc(-c4ccc(Cl)cc4)cc23)c1F [Vemurafenib] (tested concentration range 1-10000 nM) | 2.8 | 5.3 | 1.6 | 3 | 0.8 | 4.4 | 3 | 1.9 | 3.4 | 4.7 | 4.3
